Reference: patent US20230167437A1, “COMPOSITIONS FOR TREATING CANCER WITH KRAS MUTATIONS AND USES THEREOF” (Aadigen, LLC, priority 2020, published 2023)

Legend:
Format in all cases: cell-based, human
[1] = system: wild type KRAS; experiment: Indel frequencies at the endogenous target sequences (T7E1 / deep sequencing) after ADGN/Cas9 mRNA/gRNA transfection; settings: deep sequencing, 72 hours after transfection, Cas9 mRNA 0.1 μg, gRNA 0.2 μg
In short: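 Cas9 mRNA and gRNA complexed with ADGN peptide (20:1 molar ratio) and transfected into KRAS-mutant (G12V or G12D) and other cancer cell lines in 48-well format, 2 h exposure in serum-free DMEM. Indels at endogenous target sites measured 72 h post-transfection by T7E1 or deep sequencing.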

[2] = system: G12V, G12D, G12C KRAS mutant cells and WT KRAS cells; experiment: Specificity of lead sgRNAs on a large panel of cancer cells harboring different KRAS mutations (indel, proliferation); settings: Cas9 mRNA 0.2 μg, gRNA 0.4 μg
Procedure: In order to confirm the specificity of sgRNAs targeting G12V, G12C or G12D KRAS mutation, gRNA35T3 targeting G12V, gRNA34T6 targeting G12C, and gRNA35A5 targeting G12D were evaluated on a large panel of cancer cells harboring different KRAS mutations including SW403, SW480, PANC1, PK-45H, PK-1, MIA-PACA, H23, H358, HT-29, HS-68 and LS513. Cas9 mRNA (0.2 μg) and gRNA (0.4 μg) were associated with ADGN peptide at molar ratio 20/1 (peptide/nucleic acid). Cells were cultured in 48 well plate format and treated with free mRNACas9-gRNA, or ADGN/mRNACas9:gRNA complex. Indel frequencies at the endogenous target sequences was evaluated 72 hours after transfection by either T7E1 method and cell proliferation was analyzed over a period of 5 days using CellTiter Glow kits on GlowMax (Promega).

[3] = system: phospho-Akt (Ser 473); experiment: Western blot of KRAS downstream signaling 48 h post transfection; settings: PANC-1 cells
Procedure: (§1) In order to verify the specific effect of your lead sgRNA targeting G12V and G12D KRAS mutation, gRNA35A5 G12D and gRNA35T3 G12V on KRAS signal transduction pathway in PANC-1 and SW403 cells, we measured the levels of downstream signaling proteins that are activated by KRAS. We specifically looked for changes in key signaling pathways, such as mitogen-activated protein kinase (MAPK) or PI3K/Akt, which are known to be the major effector pathways of KRAS activation. Cas9 mRNA (0.2 μg) and gRNA (0.2 μg or 0.5 μg) were associated with ADGN peptide at molar ratio 20/1 (peptide/nucleic acid). PANC1 and SW403 cells were cultured in 48 well plate format and treated with free mRNACas9-gRNA, or ADGN/mRNACas9:gRNA complex. Levels of Erk and Akt phosphorylation were measured 48 h post transfection by western blot using phospho-Akt (Ser 473) (CST, #9271, RRID:AB_329825) and phospho-p44/42 MAPK (Erk1/2) (Thr202/Tyr204) (CST, #4370, RRID:AB_2315112).

[4] = system: phospho-p44/42 MAPK (Erk1/2) (Thr202/Tyr204); experiment: as above; settings: PANC-1 cells
Procedure: as §1

For “AGT TGG AGC TGA TGG CGT (guide AGTTGGAGCTGATGGCGT; chemistry not given here) [gRNA35A5, sgRNA target KRAS G12D mutation (35G>A); PAM AGG]”, which indel frequencies ([1]; HS68 cells (WT KRAS)) is on record?
The indel frequencies was 2 ± 1%.

And the indel frequencies ([1]; HT-29 cells (WT KRAS))?
The indel frequencies was 2 ± 1%.

What about the “effect on non-targeted KRAS mutant cells and WT KRAS cells (FIGS. 4A-4B)” value [2] of the same sequence?
Its value is “does not alter G12V and G12C KRAS mutant cells or WT KRAS cells”.

And the “level of p-AKT” value [3]?
Its value is “significantly reduced”.

And the “level of P-Erk reduced by” value [4]?
The value was 15%.
